Our source for the Ki values is publication PMC9607353, “Combined In Silico and In Vitro Evidence Supporting an Aurora A Kinase Inhibitory Role of the Anti-Viral Drug Rilpivirine and an Anti-Proliferative Influence on Cancer Cells” (Pharmaceuticals, 2022).

What all share (assay): kinase activity assay (ADP-Glo or radioisotope-based), dose-response; Ki from IC50 by Cheng-Prusoff
Format in all cases: biochemical

One experiment has as its target T1, Aurora B kinase (Homo sapiens, UniProt Q96GD4).
T1 construct: gene AURKB

For the next experiment, the target named is T2, Aurora A kinase (Homo sapiens, UniProt O14965).
T2 construct: gene AURKA
T2 sequence (O14965 1-403): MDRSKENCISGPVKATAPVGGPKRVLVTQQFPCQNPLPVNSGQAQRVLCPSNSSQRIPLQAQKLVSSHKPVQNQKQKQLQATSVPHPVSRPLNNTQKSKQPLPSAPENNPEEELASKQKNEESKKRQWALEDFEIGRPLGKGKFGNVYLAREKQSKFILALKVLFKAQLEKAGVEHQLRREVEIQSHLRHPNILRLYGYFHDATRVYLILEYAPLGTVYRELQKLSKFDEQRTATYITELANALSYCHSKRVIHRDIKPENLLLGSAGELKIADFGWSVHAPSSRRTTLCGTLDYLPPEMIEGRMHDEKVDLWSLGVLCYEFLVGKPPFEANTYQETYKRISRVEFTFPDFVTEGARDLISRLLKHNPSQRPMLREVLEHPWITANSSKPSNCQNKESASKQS

In the next experiment the target is PIM1 kinase (Homo sapiens, UniProt P11309).

In general, Ki refers to the equilibrium dissociation constant of an inhibitor or competing ligand from its target.

Chain of PIM1 kinase (P11309 whole entry): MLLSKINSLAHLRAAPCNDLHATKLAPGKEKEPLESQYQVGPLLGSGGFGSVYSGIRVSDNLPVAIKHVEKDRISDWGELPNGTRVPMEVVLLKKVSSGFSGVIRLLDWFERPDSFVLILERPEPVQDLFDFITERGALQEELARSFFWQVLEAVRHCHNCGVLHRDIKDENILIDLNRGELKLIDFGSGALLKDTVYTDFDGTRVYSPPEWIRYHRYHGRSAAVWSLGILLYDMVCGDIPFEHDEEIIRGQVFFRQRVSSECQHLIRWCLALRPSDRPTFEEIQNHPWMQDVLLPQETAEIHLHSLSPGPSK
T1 sequence (Q96GD4 whole entry): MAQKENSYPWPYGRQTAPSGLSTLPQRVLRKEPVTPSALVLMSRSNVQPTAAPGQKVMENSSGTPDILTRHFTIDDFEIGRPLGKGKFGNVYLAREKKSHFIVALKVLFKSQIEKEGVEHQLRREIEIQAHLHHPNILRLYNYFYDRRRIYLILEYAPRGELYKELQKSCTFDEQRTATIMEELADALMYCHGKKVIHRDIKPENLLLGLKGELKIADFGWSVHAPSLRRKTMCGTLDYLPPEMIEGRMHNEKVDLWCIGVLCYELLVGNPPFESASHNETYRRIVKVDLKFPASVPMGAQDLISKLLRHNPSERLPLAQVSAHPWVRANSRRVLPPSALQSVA

On to `Cc1cc(/C=C/C#N)cc(C)c1Nc1ccnc(Nc2ccc(C#N)cc2)n1` [rilpivirine, 4-[[4-[[4-[(1E)-2-cyanoethenyl]-2,6-dimethylphenyl]amino]-2-pyrimidinyl]amino]benzonitrile], for which the Ki at Aurora B kinase stood at 1.82 µM; at Aurora A kinase, 0.116 µM; on PIM1 kinase, 0.522 µM.
